Where a name gives a salt, the structure may show the parent alone. Read-outs that look alike come from different tables or passages of the source.
Target: T1, DPP-1 (Cathepsin C) (Homo sapiens, UniProt P53634)
T1 construct: made in house
Assay: DPP-1 Inhibition Assay (in vitro), fluorogenic substrate GR-AMC
Format: biochemical
Details: 10 uM GR-AMC, pH 7.0, room temperature, average value where tested multiple times
Procedure: Test compounds were assessed for DPP-1 (Cathepsin C) inhibitory activity using a fluorogenic substrate, GR-AMC (Glycine-Arginine-amino-4-methylcoumarin, Bachem, I-1215). The amount of amino-methylcoumarin released is proportional to the DPP-1 activity, and the reaction is monitored kinetically with a Molecular Devices plate reader using black 96-well plates.
All compounds were tested under room temperature conditions. The assay buffer consisted of 50 mM HEPES, pH 7.0, 100 mM NaCl, 2 mM glutathione (GSH), and 0.002% TWEEN 20. GSH and TWEEN 20 were added to the buffer fresh daily. Just prior to use, an in-house preparation of recombinant human DPP-1 (240 µM stock, MW 49.6 kD) was diluted 600-fold in assay buffer containing fresh 2 mM dithiothreitol (DTT) to activate the enzyme, then diluted into assay buffer (without DTT) 133-fold for a DPP-1 working solution of 3 nM. Test compounds were diluted in DMSO for 20x their final assay concentrations.
Additions to a 96-well black Costar 3915 plates were as follows: 90 µL of 11 µM GR-AMC, 5 µL test compound (followed by mixing), and 5 µL 3 nM DPP-1 to start the reaction. Fluorescent reactions were monitored kinetically at 360 nm excitation, 440 nm emission on a Molecular Devices Spectramax XPS reader. The Softmax Pro software of the reader determined the initial velocity of the selected data (the first 3-5 minutes of the reaction), and the best linear regression fit of the initial kinetic data. Final assay conditions were 0.15 nM DPP-1, 10 uM GR-AMC, 50 mM HEPES, pH 7.0, 100 mM NaCl, 2 mM GSH, 0.002% TWEEN 20, 1 uM DTT, 5.0 % DMSO. Initial velocity rates were plotted vs. test compound concentration by use of a four-parameter logistics equation (nonlinear regression, sigmoidal dose-response (variable slope), with fixed Hill (1.0) using GraphPad Prism® software for determination of DPP-1 IC50. Within-run assay coefficient of variation (CV) was generally <10%; between-run CV <20%.
Representative compounds of the present invention were tested according to the procedure as described above, with results as listed in Table 5, below. Table 5: DPP-1 Inhibition

[1] = recombinant human DPP-1 0.15 nM, read-out: IC50
[2] = IC50, recombinant human DPP-1 0.15 nM

T1 sequence (P53634 25-463): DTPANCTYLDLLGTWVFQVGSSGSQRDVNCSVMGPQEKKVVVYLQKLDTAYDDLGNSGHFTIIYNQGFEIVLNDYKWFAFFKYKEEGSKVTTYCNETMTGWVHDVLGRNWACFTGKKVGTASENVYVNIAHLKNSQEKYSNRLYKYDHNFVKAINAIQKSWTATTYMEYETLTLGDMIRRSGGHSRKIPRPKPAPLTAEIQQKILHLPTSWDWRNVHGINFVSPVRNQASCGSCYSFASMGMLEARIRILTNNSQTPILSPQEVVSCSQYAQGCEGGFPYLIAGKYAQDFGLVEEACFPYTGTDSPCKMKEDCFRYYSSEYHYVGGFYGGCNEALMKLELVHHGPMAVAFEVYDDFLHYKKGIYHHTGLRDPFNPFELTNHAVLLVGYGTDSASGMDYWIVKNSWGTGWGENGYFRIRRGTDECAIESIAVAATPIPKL

Row | SMILES | IC50 [1] [nM] | IC50 [2] [nM]
1 | N[C@@H](Cc1cccs1)C(=O)N1CCC(Cc2ccc(-c3ccccc3)cc2)(C(=O)NCC2CCOCC2)CC1 [Compound 6, (S)-1-(2-amino-3-(thiophen-2-yl)propanoyl)-4-(biphenyl-4-ylmethyl)-N-((tetrahydro-2H-pyran-4-yl)methyl)piperidine-4-carboxamide hydrochloride] | 74 | –
2 | N[C@@H](Cc1cccs1)C(=O)N1CCC(Cc2ccc(-c3ccccc3)cc2)(C(=O)N2CCC3CCCCC3C2)CC1 (stereo partly shown) [Compound 7] | – | 1300
3 | N#Cc1ccc(CC2(C(=O)OCC3CCCCC3)CCN(C(=O)[C@@H](N)Cc3cccs3)CC2)cc1 [Compound 15, (S)-cyclohexylmethyl 1-(2-amino-3-(thiophen-2-yl)propanoyl)-4-(4-cyanobenzyl)piperidine-4-carboxylate hydrochloride] | 83 | –
4 | CC[C@H](N)C(=O)N1CCC(Cc2ccc(C(F)(F)F)cc2)(C(=O)OCC2CCCCC2)CC1 [Compound 18] | – | 5400
5 | CC[C@H](N)C(=O)N1CCC(Cc2cccc(-c3ccccc3)c2)(C(=O)OCC2CCCCC2)CC1 [Compound 29] | – | 9500
6 | N[C@@H](Cc1c[nH]cn1)C(=O)N1CCC(Cc2cccc(-c3ccccc3)c2)(C(=O)OCC2CCCCC2)CC1 [Compound 31] | – | 5800
7 | C#CC[C@H](N)C(=O)N1CCC(Cc2ccc(-c3ccccc3)cc2)(C(=O)NC2CCCCC2)CC1 [Compound 35] | > 20000 | –
8 | CSC[C@H](N)C(=O)N1CCC(Cc2ccc(-c3ccccc3)cc2)(C(=O)NC2CCCCC2)CC1 [Compound 38] | – | 750
9 | COc1cccc(-c2ccc(CC3(C(=O)NC4CCCCC4)CCN(C(=O)[C@@H](N)Cc4cccs4)CC3)cc2)c1 [Compound 47, (S)-1-(2-amino-3-(thiophen-2-yl)propanoyl)-N-cyclohexyl-4-((3'-methoxybiphenyl-4-yl)methyl)piperidine-4-carboxamide hydrochloride] | 34 | –
10 | CN(C)C(=O)c1ccc(CC2(C(=O)NC3CCCCC3)CCN(C(=O)[C@@H](N)Cc3cccs3)CC2)cc1 [Compound 59, (S)-1-(2-amino-3-(thiophen-2-yl)propanoyl)-N-cyclohexyl-4-(4-(dimethylcarbamoyl)benzyl)piperidine-4-carboxamide hydrochloride] | 86 | –
11 | CS(=O)(=O)CC[C@H](N)C(=O)N1CCC(Cc2ccc(I)cc2)(C(=O)NC2CCCCC2)CC1 [Compound 74] | > 20000 | –
12 | N[C@@H](Cc1cccs1)C(=O)N1CCC(Cc2ccccc2C(=O)O)(C(=O)NC2CCCCC2)CC1 [Compound 80, 2-[1-(2-(S)-Amino-3-thiophen-2-yl-propionyl)-4-cyclohexylcarbamoyl-piperidin-4-ylmethyl]-benzoic acid hydrochloride] | 220 | –
13 | N[C@@H](Cc1cccs1)C(=O)N1CCC(Cc2ccc(NS(=O)(=O)c3ccccn3)cc2)(C(=O)NC2CCCCC2)CC1 [Compound 87, (S)-1-(2-amino-3-(thiophen-2-yl)propanoyl)-N-cyclohexyl-4-(4-(pyridine-2-sulfonamido)benzyl)piperidine-4-carboxamide hydrochloride] | 20 | –
14 | CC(=O)Nc1ccc(CC2(C(=O)NC3CCCCC3)CCN(C(=O)[C@@H](N)Cc3cccs3)CC2)cc1 [Compound 90, (S)-4-(4-acetamidobenzyl)-1-(2-amino-3-(thiophen-2-yl)propanoyl)-N-cyclohexylpiperidine-4-carboxamide hydrochloride] | 49 | –
15 | CC[S+]([O-])CCC(N)C(=O)N1CCC(Cc2ccc(-c3ccccc3)cc2)(C(=O)NCC2CCCCC2)CC1 (stereo not shown) [Compound 107] | > 20000 | –
16 | COC(=O)C1CCC(NC(=O)C2(c3ccccc3)CCN(C(=O)C(N)Cc3cccs3)CC2)CC1 (stereo not shown) [Compound 109] | 25 | –
17 | N[C@@H](Cc1cccs1)C(=O)N1CCC(C(=O)N[C@H]2CC[C@H](C(=O)O)CC2)(c2ccccc2)CC1 [Compound 111, 4-{[1-(2-(S)-Amino-3-thiophen-2-yl-propionyl)-4-phenyl-piperidine-4-carbonyl]-amino}-trans-cyclohexanecarboxylic acid] | 89 | –
18 | COC(=O)C1CCC(NC(=O)C2(c3ccccc3)CCN(C(=O)C(N)Cc3cccs3)CC2)CC1 (stereo not shown) [Compound 113] | 70 | –
19 | NC(=O)c1ccc(CC2(C(=O)NCC3CCCCC3)CCN(C(=O)[C@@H](N)Cc3cccs3)CC2)cc1 [Compound 116, (S)-1-(2-amino-3-(thiophen-2-yl)propanoyl)-4-(4-carbamoylbenzyl)-N-(cyclohexylmethyl)piperidine-4-carboxamide hydrochloride] | 50 | –
20 | NC(=O)c1ccc(CC2(C(=O)NC3CCC(O)CC3)CCN(C(=O)C(N)Cc3cccs3)CC2)cc1 (stereo not shown) [Compound 117] | 330 | –
21 | N#CC1(c2cc(C(F)(F)F)cc(C(F)(F)F)c2)CCN(C(=O)C(N)Cc2cccs2)CC1 (stereo not shown) [Compound 118] | – | 3400
22 | NC(C(=O)N1CCC(Cc2ccc(-c3ccccc3)cc2)(C(=O)NCC2CCCCC2)CC1)C(O)c1cccs1 (stereo not shown) [Compound 123] | 820 | –
23 | N#Cc1ccc(CC2(C(=O)NC3CCC(O)CC3)CCN(C(=O)C(N)Cc3cccs3)CC2)cc1 (stereo not shown) [Compound 125] | 160 | –
24 | N[C@@H](Cc1cccs1)C(=O)N1CCC(Cc2ccc(-c3nnn[nH]3)cc2)(C(=O)NC2CCCCC2)CC1 [Compound 126, (S)-4-(4-(1H-tetrazol-5-yl)benzyl)-1-(2-amino-3-(thiophen-2-yl)propanoyl)-N-cyclohexylpiperidine-4-carboxamide hydrochloride] | 170 | –
25 | NC(Cc1cccs1)C(=O)N1CCC(Cc2ccc(-c3nnn[nH]3)cc2)(C(=O)NC2CCC(O)CC2)CC1 (stereo not shown) [Compound 128] | 690 | –
26 | Cc1ccc(C2(C(=O)NC3CCC(O)CC3)CCN(C(=O)C(N)Cc3cccs3)CC2)cc1 (stereo not shown) [Compound 131] | 140 | –
27 | N[C@@H](Cc1cccs1)C(=O)N1CCC(C(=O)NCC2CCCCC2)(c2cc(C(F)(F)F)cc(C(F)(F)F)c2)CC1 [Compound 133, 1-(2-(S)-Amino-3-thiophen-2-yl-propionyl)-4-(3,5-bis-trifluoromethyl-phenyl)-piperidine-4-carboxylic acid cyclohexylmethylamide hydrochloride] | 67 | –
28 | CN1CCC(CNC(=O)C2(c3ccccc3)CCN(C(=O)C(N)Cc3cccs3)CC2)CC1 (stereo not shown) [Compound 152] | 820 | –

From patent publication EP2544684B1, “4,4-DISUBSTITUTED PIPERIDINE DERIVATIVES USEFUL AS INHIBITORS OF DIPEPTIDYL PEPTIDASE-1 (DPP-1)” (Janssen Pharmaceutica NV, priority 2010, dated 2011)
